Experiments:
rAd-LacZ [1] = conditions: Svensson and Persson 1984; cited from earlier work
rAd-LacZ [2] = conditions: 20 mM EDTA; HeLa cells; MOI 2
Experimental: (§1) HeLa cells were infected with recombinant virus (rAd-LacZ [FIG. 11A], rAAV-LacZ [FIG. 11B]) at an MOI of 2 either in the presence or absence of divalent cation chelator EDTA (20 mM) as described in methods. 24 h post Ad infection, and 36 h post AAV infection, cells were fixed and stained for β-galactosidase activity (upper panel). Transduction has been quantitated in the lower panel as the percentage of HeLa cells transduced in the presence or absence of EDTA.
(§2) All infectivity and binding assays were done in suspension in a buffer determined to result in maximum cell viability, HEPES-buffered saline (HBS) containing 1% BSA (HBSB) (Sambrook et al., (1989) Molecular Cloning, A Laboratory Manual, (N. Ford et al., eds.), Cold Spring Harbor Laboratory Press, New York). Adherent cells were first detached with 10 mM EDTA followed by two washes in phosphate buffered saline (PBS) containing […] CaCl2 and 0.5 mM MgCl2 and one wash in HBS. To assess the effect of EDTA on AAV transduction, HeLa cells were incubated with recombinant virus at an MOI of 2 in HBS±20 mM EDTA for 1 hour at 4° C. After washing in HBS±EDTA to remove unbound virus, cells were resuspended in HBS±5 mM EDTA and placed at 37° C. for 30 minutes.

rAAV-LacZ = conditions: 20 mM EDTA; HeLa cells; MOI 2
Experimental: as §1, §2

O=C(O)CN(CCN(CC(=O)O)CC(=O)O)CC(=O)O [EDTA, ethylenediaminetetraacetate]
inhibition of Ad infection, previous published results (rAd-LacZ [1]): 20-50%
inhibition of recombinant Ad-LacZ transduction (rAd-LacZ [2]): 40%
inhibition of AAV infection (rAAV-LacZ): greater than 90%
